We go through 29 compounds from patent US8822691B2, “Pesticidal carboxamides” (Bayer CropScience AG, priority 2009, dated 2014).

Like-named read-outs stand apart in the source and are kept apart here.

Format in all cases: in vivo
Series [1] concerns Tetranychus urticae. Nature of the series: Test against two-spotted spider mite (Tetranychus urticae), spray. Conditions: for pest or weed control at 500 ppm: Tetranychus urticae, 168 h, read-out: acaricidal activity. How it is done:
(§1) Unless not mentioned otherwise, the test solutions were prepared as follows:
(§2) Containing as solvent: Dimethylformamide, 3 parts by weight; and as emulsifier: Polyoxyethylene alkyl phenyl ether, 1 part by weight
(§3) To prepare the test solution, 1 part by weight of an active compound is mixed with the above-mentioned amount of solvent containing the above-mentioned amount of emulsifier, and the mixture is diluted with water to the desired concentration.
50 to 100 adult mites of Tetranychus urticae were inoculated to leaves of kidney bean at two-leaf stage planted in a pot of 6 cm in diameter. After one day, test solution at the appropriate concentration was sprayed thereon in a sufficient amount using a spray gun. After the spraying, the plant pot was placed inside a greenhouse, and after 7 days, the acaricidal activity was calculated. An acaricidal activity of 100% means that all mites were killed, whereas an acaricidal activity of 0% means that no mite was killed.

Series [2] has as its system Aulacophora femoralis. Put plainly: Test against cucurbit leaf beetle (Aulacophora femoralis), leaf dip. Conditions: active compound concentration of 500 ppm, second instar larvae on cucumber leaves, after 7 days; for pest or weed control at 500 ppm: Aulacophora, foliar, 168 h, read-out: insecticidal activity. How it is done:
as §1, §2, §3
Leaves of cucumber were immersed in the test solution at the appropriate concentration, and the leaves were dried in air. The leaves were then put in a plastic cup containing sterilized black soil and five Aulacophora femoralis at second instar larvae were released in the cup. The cups were placed in a temperature-controlled chamber at 25° C. After 7 days, the number of dead larvae was counted, and thus the insecticidal activity was calculated. An insecticidal activity of 100% means that all larvae were killed, whereas an insecticidal activity of 0% means that no larva was killed.

In series [3] the test system is Spodoptera litura. Put plainly: Test against tobacco cutworm (Spodoptera litura) larvae, leaf dip. Conditions: active compound concentration of 100 ppm, third instar larvae on sweet potato leaves, after 7 days; for pest or weed control at 100 ppm: foliar, 168 h, read-out: insecticidal activity. How it is done: as §1, §2, §3
Leaves of sweet potato were immersed in the test solution at the appropriate concentration, and the leaves were dried in air. The leaves were then placed in a petri dish having a diameter of 9 cm, and ten Spodoptera litura at third instar larvae were released therein. The petri dishes were placed in a temperature-controlled chamber at 25° C. After 2 days and 4 days more sweet potato leaves were added. After 7 days, the number of dead larvae was counted to calculate the insecticidal activity. An insecticidal activity of 100% means that all larvae were killed, whereas an insecticidal activity of 0% means that no larva was killed. In the current test, the results of two petri dishes for each treatment were averaged.

For series [4], the system named is Ctenocephalides felis. Nature of the series: Ctenocephalides felis-test (CTECFE). Particulars: application rate of 100 ppm in cattle blood; adult unfed fleas; after 2 days. How it is done:
Solvent: dimethyl sulfoxide
To produce a suitable preparation of active compound, 10 mg of active compound are dissolved in 0.5 ml solvent, and the concentrate is diluted with cattle blood to the desired concentration. Approximately 20 adult unfed (Ctenocepahlides felis) are placed in flea chambers. The blood chamber, sealed with parafilm on the bottom, are filled with cattle blood supplied with compound solution and placed on top of the flea chamber, so that the fleas are able to suck the blood. The blood chamber is heated to 37° C. whereas the flea chamber is kept at room temperature. After 2 days mortality in % is determined. 100% means that all the fleas have been killed; 0% means that none of the fleas have been killed.

The mark [5] stands for this setting: active compound concentration of 500 ppm, adult mites on kidney bean, after 7 days.

In turn, `CCc1cc(C(F)(C(F)(F)F)C(F)(F)F)cc(C)c1NC(=O)c1ccc2nc(Cl)ccc2c1` [2-29] showed an acaricidal activity in series [1] (setting [5]) of 100%. The insecticidal activity in series [2] and in series [3] was 100% throughout.
`CCc1cc(C(F)(C(F)(F)F)C(F)(F)F)cc(C)c1NC(=O)c1ccc2nc(C#N)ccc2c1` [2-31]: in series [1] (setting [5]), the acaricidal activity came to 100%. In addition, the insecticidal activity in series [2] and in series [3] was 100% throughout.
In the case of `Cc1cc(C(F)(C(F)(F)F)C(F)(F)F)cc(Br)c1NC(=O)c1ccc2nc(C#N)ccc2c1` [2-40], the acaricidal activity in series [1] (setting [5]) is recorded as 100%. The insecticidal activity in series [2] and in series [3] was 100% throughout. Further, the “activity (mortality)” value in series [4] was 95%.
For the compound `CCc1cc(C(F)(C(F)(F)F)C(F)(F)F)cc(CC)c1NC(=O)c1ccc2nc(C#N)ccc2c1` [2-46], the acaricidal activity in series [1] (setting [5]) is 100%. The insecticidal activity in series [2] and in series [3] was 100% each time.
With `CCc1cc(C(F)(C(F)(F)F)C(F)(F)F)cc(Br)c1NC(=O)c1ccc2nc(C#N)ccc2c1` [2-49], the acaricidal activity in series [1] (setting [5]) was 100%. The insecticidal activity in series [2] and in series [3] was 100% each time. In series [4], the “activity (mortality)” value was found to be 95%.
Turning to `N#Cc1ccc2cc(C(=O)Nc3c(Br)cc(C(F)(C(F)(F)F)C(F)(F)F)cc3Br)ccc2n1` [2-64], the acaricidal activity in series [1] (setting [5]) was determined as 100%. Further, the insecticidal activity in series [2] and in series [3] was 100% throughout.
In series [1] (setting [5]), `N#Cc1ccc2cc(C(=O)Nc3c(Br)cc(C(F)(C(F)(F)F)C(F)(F)F)cc3SC(F)(F)F)ccc2n1` [2-66] gave an acaricidal activity of 100%. Further, the insecticidal activity in series [2] and in series [3] was 100% in each case.
Consider `CCc1cc(C(n2cc(Cl)cn2)(C(F)(F)F)C(F)(F)F)cc(C)c1NC(=O)c1ccc2nc(C#N)ccc2c1` [2-83], for which, in series [1] (setting [5]), the acaricidal activity was found to be 100%. In addition, the insecticidal activity in series [2] and in series [3] was 100% throughout.
With `Cc1cc(C(F)(C(F)(F)F)C(F)(F)C(F)(F)F)cc(C)c1NC(=O)c1ccc2nc(C#N)ccc2c1` (stereo not drawn) [2-87], in series [1] (setting [5]), the acaricidal activity is given as 100%. Also, the insecticidal activity in series [2] and in series [3] was 100% in each case.
Take `CCc1cc(C(F)(C(F)(F)F)C(F)(F)C(F)(F)F)cc(C)c1NC(=O)c1ccc2ncccc2c1` (stereo not drawn) [2-88]: the insecticidal activity in series [2] and in series [3] was 100% each time. Also, the “activity (mortality)” value in series [4] is reported as 95%.
`N#Cc1ccc2cc(C(=O)Nc3c(Br)cc(C(F)(C(F)(F)F)C(F)(F)C(F)(F)F)cc3Br)ccc2n1` (stereo not drawn) [2-110] came in with an acaricidal activity in series [1] (setting [5]) of 100%. Besides, the insecticidal activity in series [2] and in series [3] was 100% throughout.
Regarding `CCc1cc(C2(F)C(F)(F)C(F)(F)C(F)(F)C(F)(F)C2(F)F)cc(C)c1NC(=O)c1ccc2nc(C#N)ccc2c1` [2-130], the acaricidal activity in series [1] (setting [5]) is recorded as 100%. For the same compound, the insecticidal activity in series [2] and in series [3] was 100% in each case.
Regarding `O=C(Nc1c(Br)cc(C(F)(C(F)(F)F)C(F)(F)C(F)(F)F)cc1SC(F)(F)F)c1ccc2c(ccc[n+]2[O-])c1` (stereo not drawn) [2-184], the acaricidal activity in series [1] (setting [5]) came out at 100%.
Still for that read-out and setting: as for `O=C(Nc1c(I)cc(C(F)(C(F)(F)F)C(F)(F)C(F)(F)F)cc1SC(F)(F)F)c1ccc2c(ccc[n+]2[O-])c1` (stereo not drawn) [2-187], the figure is 100%.
On the same count and under the same terms, the result for `Cc1cc(C(F)(C(F)(F)F)C(F)(F)Br)cc(C)c1NC(=O)c1ccc2ncccc2c1` (stereo not drawn) [2-189] reads 100%.
For the compound `Cc1cc(C(F)(C(F)(F)F)C(F)(F)Br)cc(C)c1NC(=O)c1ccc2nc(C#N)ccc2c1` (stereo not drawn) [2-191], in series [1] (setting [5]), the acaricidal activity is 100%. Also, the insecticidal activity in series [2] and in series [3] was 100% throughout.
In turn, `CCc1cc(C(F)(C(F)(F)F)C(F)(F)Br)cc(C)c1NC(=O)c1ccc2ncccc2c1` (stereo not drawn) [2-192] gave an acaricidal activity in series [1] (setting [5]) of 100%. Moreover, the insecticidal activity in series [2] is 100%.
The compound `CCc1cc(C(F)(C(F)(F)F)C(F)(F)Br)cc(C)c1NC(=O)c1ccc2nc(C#N)ccc2c1` (stereo not drawn) [2-194] registered an acaricidal activity in series [1] (setting [5]) of 100%. Also, the insecticidal activity in series [2] and in series [3] was 100% throughout.
As for `N#Cc1ccc2cc(C(=O)Nc3c(Br)cc(C(F)(C(F)(F)F)C(F)(F)Br)cc3Br)ccc2n1` (stereo not drawn) [2-197], in series [1] (setting [5]), the acaricidal activity stood at 100%. Further, the insecticidal activity in series [2] and in series [3] was 100% in each case.
For `O=C(Nc1c(I)cc(C(F)(C(F)(F)F)C(F)(F)Br)cc1I)c1ccc2c(ccc[n+]2[O-])c1` (stereo not drawn) [2-199], the acaricidal activity in series [1] (setting [5]) came out at 100%. Besides, the insecticidal activity in series [2] is on record as 100%.
On to `N#Cc1ccc2cc(C(=O)Nc3c(Br)cc(C(F)(F)C(F)(F)F)cc3OC(F)F)ccc2n1` [2-221], for which, in series [1] (setting [5]), the acaricidal activity was 100%. In addition, the insecticidal activity in series [2] and in series [3] was 100% in each case.
In series [1] (setting [5]), `N#Cc1ccc2cc(C(=O)Nc3c(Br)cc(C(F)(C(F)(F)F)C(F)(F)F)cc3C(F)(F)F)ccc2n1` [2-249] displayed an acaricidal activity of 100%. In addition, the insecticidal activity in series [2] and in series [3] was 100% throughout.
For `Cc1cc(C(F)(C(F)(F)F)C(F)(F)F)cc(OC(F)F)c1NC(=O)c1ccc2nc(C#N)ccc2c1` [2-261], in series [1] (setting [5]), the acaricidal activity amounted to 100%. The insecticidal activity in series [2] and in series [3] was 100% each time.
Take `N#Cc1ccc2cc(C(=O)Nc3c(Cl)cc(C(F)(C(F)(F)F)C(F)(F)C(F)(F)F)cc3OC(F)F)ccc2n1` (stereo not drawn) [2-274]: the acaricidal activity in series [1] (setting [5]) is 100%. Also, the insecticidal activity in series [2] and in series [3] was 100% throughout.
`CCc1cc(C(F)(C(F)(F)F)C(F)(F)C(F)(F)F)cc(C)c1NC(=O)c1ccc2ncsc2c1` (stereo not drawn) [4-33] showed an acaricidal activity in series [1] (setting [5]) of 100%. Further, the insecticidal activity in series [2] and in series [3] was 100% in each case.
For the compound `CCc1cc(C(F)(C(F)(F)F)C(F)(F)F)cc(C)c1NC(=O)c1ccc2cc(Br)ccc2c1` [Compound No. 1-3, 6-bromo-N-[2-ethyl-4-(1,1,1,2,3,3,3-heptafluoropropan-2-yl-2-yl)-6-methylphenyl]-2-naphthamide], the pest or weed control at 500 ppm in series [1] (in Phaseolus vulgaris) is 100%.
Take `N#Cc1ccc2cc(C(=O)Nc3c(Cl)cc(C(F)(C(F)(F)F)C(F)(F)F)cc3OC(F)F)ccc2n1` [Compound No. 2-231, N-[2-chloro-6-(difluoromethoxy)-4-(1,1,1,2,3,3,3-heptafluoropropan-2-yl)phenyl]-2-cyanoquinoline-6-carboxamide]: the pest or weed control at 500 ppm in series [1] (setting [5]) and in series [2] was 100% throughout. The pest or weed control at 100 ppm in series [3] came to 100%.
For `CCc1cc(C(F)(C(F)(F)F)C(F)(F)C(F)(F)F)cc(C)c1NC(=O)c1ccc2nc(C#N)cc(Br)c2c1` (stereo not drawn) [Compound No. 2-269, 4-bromo-2-cyano-N-[2-ethyl-6-methyl-4-(1,1,1,2,3,3,4,4,4-nonafluorobutan-2-yl)phenyl]quinoline-6-carboxamide], the pest or weed control at 500 ppm in series [1] (setting [5]) and in series [2] was 100% throughout. Further, the pest or weed control at 100 ppm in series [3] was determined as 100%.
In the case of `CCc1cc(C(F)(C(F)(F)F)C(F)(F)C(F)(F)F)cc(C)c1NC(=O)c1ccc2nc(C#N)sc2c1` (stereo not drawn) [Compound No. 4-34, 2-cyano-N-[2-ethyl-6-methyl-4-(1,1,1,2,3,3,4,4,4-nonafluorobutan-2-yl)phenyl]-1,3-benzothiazole-6-carboxamide], the pest or weed control at 500 ppm in series [1] (setting [5]) was found to be 100%. Also, the pest or weed control at 100 ppm in series [3] is 100%.
